In ChEMBL document CHEMBL1909631, “Synthesis and anti-inflammatory activity of some new 4,5-dihydro-1,5-diaryl-1H-pyrazole-3-substituted-heteroazole derivatives” (Bioorg Med Chem Lett, 2011) one finds Activity, inhibition in vivo and inhibition data, which are given here for 31 molecules.

Data set [1] concerns Rattus norvegicus. Put plainly: Antiinflammatory activity in Wistar rat assessed as protection against carrageenan-induced paw edema at 100 mg/kg, po administered 1 hr before carrageenan challenge measured after 4 hrs relative to control. It is filed as functional. For orientation: The carrageenan paw model is a standard test of acute inflammation.
For data set [2], the system named is Rattus norvegicus. Put plainly: Analgesic activity in Wistar rat assessed as inhibition of acetic acid-induced writhing at 100 mg/kg, po administered 1 hr before acetic acid challenge measured after 30 mins relative to control. The data set is classed as functional.
The target in data set [3] is T1, Prostaglandin G/H synthase 2 (Homo sapiens) (UniProt P35354).
T1 sequence (whole entry): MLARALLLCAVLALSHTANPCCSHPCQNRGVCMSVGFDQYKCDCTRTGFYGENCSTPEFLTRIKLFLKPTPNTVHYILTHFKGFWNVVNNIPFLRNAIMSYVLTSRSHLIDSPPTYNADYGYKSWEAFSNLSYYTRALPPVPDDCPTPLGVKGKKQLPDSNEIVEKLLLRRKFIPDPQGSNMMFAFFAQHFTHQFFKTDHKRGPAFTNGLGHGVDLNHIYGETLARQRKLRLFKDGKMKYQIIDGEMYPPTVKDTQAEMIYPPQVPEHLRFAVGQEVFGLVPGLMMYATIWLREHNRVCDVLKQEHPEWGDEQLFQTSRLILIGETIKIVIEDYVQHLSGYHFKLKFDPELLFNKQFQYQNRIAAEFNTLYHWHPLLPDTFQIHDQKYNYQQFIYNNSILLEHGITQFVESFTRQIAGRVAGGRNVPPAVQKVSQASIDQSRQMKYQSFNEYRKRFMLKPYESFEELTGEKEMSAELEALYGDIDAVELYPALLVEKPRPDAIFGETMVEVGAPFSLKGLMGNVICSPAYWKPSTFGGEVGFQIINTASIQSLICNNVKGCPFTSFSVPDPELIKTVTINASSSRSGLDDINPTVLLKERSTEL
The data set is described as follows: Inhibition of COX2 in human whole blood at 10 uM.

The subject of data set [4] is Rattus norvegicus. Put plainly: Ulcerogenicity in fasted Wistar rat assessed as ulceration at 300 mg/kg, po administered every 2 hrs. It is filed as toxicity, organism-based. Also on record: dose 300 mg/kg, route oral. Conditions: in vivo.

On to `Sc1nc(C2=NN(c3ccccc3)C(c3ccc(Cl)cc3)C2)no1` (stereo not given), for which the Activity with Rattus norvegicus [1] stood at 40.51%.
With `Clc1ccc(C2CC(c3nn[nH]n3)=NN2c2ccccc2)cc1` (stereo not given), in the data set with Rattus norvegicus [1], the Activity turned out to be 37.8%.
Still for that read-out and setting: the value for `N#CC1=NN(c2ccccc2)C(c2ccc(Cl)cc2)C1` (racemic) was 39.43%; that for `N#CC1=NN(c2ccc(S(N)(=O)=O)cc2)C(c2ccc(Cl)cc2)C1` (racemic) was 49.67%.
For the molecule `Oc1nnc(C2=NN(c3ccccc3)C(c3ccc(Cl)cc3)C2)o1` (racemic), the Activity in the data set with Rattus norvegicus [1] turned out to be 24.26%.
Regarding `NS(=O)(=O)c1ccc(N2N=C(c3nnc(O)o3)CC2c2ccc(Cl)cc2)cc1` (racemic), in the data set on Rattus norvegicus [1], the Activity was determined as 35.38%.
For `Sc1nnc(C2=NN(c3ccccc3)C(c3ccc(Cl)cc3)C2)o1` (racemic), in the data set on Rattus norvegicus [1], the Activity amounted to 32.74%.
For `NS(=O)(=O)c1ccc(N2N=C(c3nnc(S)o3)CC2c2ccc(Cl)cc2)cc1` (racemic), the Activity with Rattus norvegicus [1] is 36.76%.
`Nc1nnc(C2=NN(c3ccccc3)C(c3ccc(Cl)cc3)C2)o1` (racemic): in the data set on Rattus norvegicus [1], the Activity amounted to 4.5%.
The same measure, in the same setting: the value for `Nc1nnc(C2=NN(c3ccc(S(N)(=O)=O)cc3)C(c3ccc(Cl)cc3)C2)o1` (racemic) was 18.38%; that for `CSc1nnc(C2=NN(c3ccccc3)C(c3ccc(Cl)cc3)C2)s1` (racemic) was 11.84%; that for `CSc1nnc(C2=NN(c3ccc(S(N)(=O)=O)cc3)C(c3ccc(Cl)cc3)C2)s1` (racemic) was 26.12%.
The same measure, in the same setting: the value for `Oc1nc(C2=NN(c3ccccc3)C(c3ccc(Cl)cc3)C2)no1` (racemic) was 32.68%; that for `NS(=O)(=O)c1ccc(N2N=C(c3noc(O)n3)CC2c2ccc(Cl)cc2)cc1` (racemic) was 46.18%; that for `NS(=O)(=O)c1ccc(N2N=C(c3noc(S)n3)CC2c2ccc(Cl)cc2)cc1` (racemic) was 48.82%.
Turning to `Cc1nnc(C2=NN(c3ccccc3)C(c3ccc(Cl)cc3)C2)o1` (racemic), the Activity with Rattus norvegicus [1] is 16.45%.
As to `FC(F)(F)c1nnc(C2=NN(c3ccccc3)C(c3ccc(Cl)cc3)C2)o1` (racemic), the Activity in the data set with Rattus norvegicus [1] was -46.9%.
As to `CCOC(=O)c1nnc(C2=NN(c3ccccc3)C(c3ccc(Cl)cc3)C2)o1` (racemic), the Activity in the data set on Rattus norvegicus [1] was 4.5%.
For `CCOC(=O)Cc1nnc(C2=NN(c3ccccc3)C(c3ccc(Cl)cc3)C2)o1` (racemic), in the data set on Rattus norvegicus [1], the Activity is listed as -17.6%.
`O=C(O)c1nnc(C2=NN(c3ccccc3)C(c3ccc(Cl)cc3)C2)o1` (racemic): the Activity with Rattus norvegicus [1] is on record as -19.3%.
As for `O=C(O)Cc1nnc(C2=NN(c3ccccc3)C(c3ccc(Cl)cc3)C2)o1` (racemic), the Activity in the data set on Rattus norvegicus [1] worked out at 7.46%.
The inhibition in vivo is how much of the control response was suppressed. The term inhibition denotes the drop in the measured response relative to a control, in per cent. Read a high inhibition as a response far below the control. On to `Cc1nc(C2=NN(c3ccccc3)C(c3ccc(Cl)cc3)C2)no1` (racemic), for which the inhibition in vivo at 100 mg/kg in the data set with Rattus norvegicus [2] amounted to 23.7%. The molecule also gave an inhibition in data set [3] of 4%. Also, the Activity is listed as 49.24% in the data set with Rattus norvegicus [1] and “Non-toxic” in the data set on Rattus norvegicus [4].
For the molecule `FC(F)(F)c1nc(C2=NN(c3ccccc3)C(c3ccc(Cl)cc3)C2)no1` (racemic), the inhibition in vivo at 100 mg/kg in the data set with Rattus norvegicus [2] was found to be 15.8%. For the same molecule, the inhibition in data set [3] came to 6%. In addition, the results for the Activity in the data set on Rattus norvegicus [1] and with Rattus norvegicus [4] were 49.45% and “Non-toxic”, respectively.
Consider `CCOC(=O)c1nc(C2=NN(c3ccccc3)C(c3ccc(Cl)cc3)C2)no1` (racemic), for which the Activity with Rattus norvegicus [1] is listed as 20.35%.
`CCOC(=O)Cc1nc(C2=NN(c3ccccc3)C(c3ccc(Cl)cc3)C2)no1` (racemic): the Activity in the data set with Rattus norvegicus [1] is 30.94%.
Turning to `O=C(O)c1nc(C2=NN(c3ccccc3)C(c3ccc(Cl)cc3)C2)no1` (racemic), the Activity with Rattus norvegicus [1] came to 14.4%.
As to `O=C(O)Cc1nc(C2=NN(c3ccccc3)C(c3ccc(Cl)cc3)C2)no1` (racemic), in the data set with Rattus norvegicus [1], the Activity is listed as 7.08%.
With `NS(=O)(=O)c1ccc(N2N=C(c3nn[nH]n3)CC2c2ccc(Cl)cc2)cc1` (racemic), in the data set on Rattus norvegicus [2], the inhibition in vivo at 100 mg/kg was 30.1%. Also, the inhibition in data set [3] is 7%. Moreover, the results for the Activity in the data set with Rattus norvegicus [1] and in the data set with Rattus norvegicus [4] were 54.58% and “Non-toxic”, respectively.
As for `Cn1nnc(C2=NN(c3ccccc3)C(c3ccc(Cl)cc3)C2)n1` (racemic), in the data set on Rattus norvegicus [1], the Activity is on record as 34.31%.
Regarding `Cn1nnc(C2=NN(c3ccc(S(N)(=O)=O)cc3)C(c3ccc(Cl)cc3)C2)n1` (racemic), the inhibition in vivo at 100 mg/kg in the data set on Rattus norvegicus [2] was found to be 23.7%. This molecule also yielded an inhibition in data set [3] of 11%. Moreover, the Activity in the data set on Rattus norvegicus [1] is listed as 48.58%; with Rattus norvegicus [4], “Non-toxic”.
In the case of `O=C([O-])Cc1ccccc1Nc1c(Cl)cccc1Cl.[Na+]` [DICLOFENAC SODIUM], the inhibition in vivo at 100 mg/kg in the data set with Rattus norvegicus [2] was found to be 76.6%. Moreover, the values for the Activity in the data set with Rattus norvegicus [1] and in the data set on Rattus norvegicus [4] were 50.93% and “Toxic”, respectively.
